The text below walks through data of patent publication US11666577B2 (National Institute of Biological Sciences, Beijing, priority 2018, dated 2023).

The assay has as its system HT-29 cells. As to the kind of experiment: Necroptosis assay (TNF-α/Smac mimetic/z-VAD, TSZ-induced) in HT-29 cells. The class given is cell-based, human. In a few lines: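 HT-29 cells were challenged with 20 ng/ml TNF-α, 100 nM Smac mimetic and 20 mM z-VAD while compound was added at the same time (library screen at 10 mM). After 24 h, viability was read as ATP luminescence (CellTiter-Glo) and normalized to DMSO-treated cells; values are means ± SD of duplicates.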

The mark [1] stands for this setting: Series 1 (Table 1) compounds 1-146, HT-29 cells, TNF-α/Smac mimetic/z-VAD, 24 hrs, cell viability by ATP level, read-out: Series 1 compound necroptosis activity.
[2] abbreviates: Homo sapiens, Series 2 (Table 2) compounds, HT-29 necroptosis assay, read-out: Series 2 compound necroptosis activity.
Setting [3] is: Series 1 (Table 1) compounds 147-176, activity extrapolated, read-out: Series 1 compound necroptosis activity (extrapolated).
The mark [4] stands for this setting: Homo sapiens, Series 1 (Table 1) compounds 1-146, HT-29 cells, TNF-α/Smac mimetic/z-VAD, 24 hrs, cell viability by ATP level, read-out: Series 1 compound necroptosis activity.

Each structure is given as a SMILES string. Read-outs that look alike come from different tables or passages of the source.

With `Cn1c(=O)c2c(nc(S(=O)(=O)Cc3ccc(Cl)cc3)n2C)n(C)c1=O` [Compound 31, 8-(4-chlorobenzylsulfonyl)-1,3,7-trimethyl-1H-purine-2,6(3H,7H)-dione], the EC50 under setting [1] lay in the range of 1 to 1000 µM.
As for `Cn1c(=O)c2c(nc(S(C)(=O)=O)n2C)n(CC#Cc2cc(NC(=O)C3CC3)cc(NC(=O)C3CC3)c2)c1=O` [Compound 27], the EC50 under setting [2] lay in the range of 0.001 to 0.1 µM.
As to `CCCC(=O)Nc1cccc(C#CCn2c(=O)n(C)c(=O)c3c2nc(S(=O)(=O)CC2CC2)n3C)c1` [Compound 161], the EC50 under setting [3] was 1 to 1000 µM.
Take `COc1ccc(Br)c(OC)c1CS(=O)(=O)c1nc2c(c(=O)n(C)c(=O)n2C)n1C` [Compound 69, 8-(3-bromo-2,6-dimethoxybenzylsulfonyl)-1,3,7-trimethyl-1H-purine-2,6(3H,7H)-dione]: the EC50 under setting [1] was in the range of 1 to 1000 µM.
As to `CNc1cc(C#CCn2c(=O)n(C)c(=O)c3c2nc(S(=O)(=O)Cc2cc(OC)ccc2OC)n3C)ccn1` [Compound 127, 8-((2,5-dimethoxybenzyl)sulfonyl)-1,7-dimethyl-3-(3-(2-(methylamino)pyridin-4-yl)prop-2-yn-1-yl)-3,7-dihydro-1H-purine-2,6-dione], the EC50 under setting [4] fell in the range of 1 to 10 µM.
Regarding `Cn1c(=O)c2c(nc(S(C)(=O)=O)n2C)n(CC#Cc2ccc3[nH]c(=O)[nH]c3c2)c1=O` [Compound 23], the EC50 under setting [2] was 0.1 to 10 µM.
On to `CCn1c(=O)c2c(nc(S(C)(=O)=O)n2C)n(C)c1=O` [Compound 89, ethyl-3,7-dimethyl-8-(methylsulfonyl)-1H-purine-2,6(3H,7H)-dione], for which, under setting [1], the EC50 was in the range of 1 to 1000 µM.
Take `CC(C)Nc1cc(C#CCn2c(=O)n(C)c(=O)c3c2nc(S(=O)(=O)CC2CC2)n3C)ccn1` [Compound 35]: under setting [2], the EC50 lay within 0.001 to 0.1 µM.
For the compound `Cn1c(S(C)(=O)=O)nc2c1c(=O)n(CC1CC1)c(=O)n2C` [Compound 91, 1-(cyclopropylmethyl)-3,7-dimethyl-8-(methylsulfonyl)-1H-purine-2,6(3H,7H)-dione], the EC50 under setting [1] fell in the range of 1 to 1000 µM.
Regarding `Cn1c(=O)c2c(nc(S(C)(=O)=O)n2C)n(CC#Cc2cccc(NCc3ccccc3)c2)c1=O` [Compound 166], the EC50 under setting [3] is 1 to 1000 µM.
Regarding `Cn1c(=O)c2c(nc(S(=O)(=O)CCO)n2C)n(CC#Cc2cccc(O)c2)c1=O` [Compound 147], the EC50 under setting [3] was 1 to 1000 µM.
Consider `Cn1c(=O)c2c(nc(S(=O)(=O)Cc3ccc(Br)c(Cl)c3)n2C)n(C)c1=O` [Compound 64, 8-(4-bromo-3-chlorobenzylsulfonyl)-1,3,7-trimethyl-1H-purine-2,6(3H,7H)-dione], for which the EC50 under setting [1] was in the range of 1 to 1000 µM.
In the case of `C=CC(=O)Nc1cccc(C#CCn2c(=O)n(C)c(=O)c3c2nc(S(=O)(=O)CC2CC2)n3C)c1` [Compound 160], under setting [3], the EC50 was 1 to 1000 µM.
On to `COc1ccc(CS(=O)(=O)c2nc3c(c(=O)n(C)c(=O)n3C)n2C)cc1` [Compound 37, 8-(4-methoxybenzylsulfonyl)-1,3,7-trimethyl-1H-purine-2,6(3H,7H)-dione], for which, under setting [1], the EC50 fell in the range of 1 to 1000 µM.
On the same count and under the same terms, the value for `Cn1c(=O)c2c(nc(S(=O)(=O)CC3CC3)n2C)n(Cc2cccnc2)c1=O` [Compound 143, 8-((cyclopropylmethyl)sulfonyl)-1,7-dimethyl-3-(pyridin-3-ylmethyl)-1H-purine-2,6(3H,7H)-dione] was 1 to 1000 µM.
Turning to `Cn1c(=O)c2c(nc(S(=O)(=O)CC3CC3)n2C)n(CC#Cc2cc(NC(=O)C3CC3)nc(C(F)(F)F)c2)c1=O` [Compound 45], the EC50 under setting [2] was in the range of 0.001 to 0.1 µM.
Regarding `CCCS(=O)(=O)c1nc2c(c(=O)n(C)c(=O)n2Cc2ccc(-c3cccc(NCC)c3)s2)n1C` [Compound 176], the EC50 under setting [3] was 1 to 1000 µM.
As for `Cn1c(=O)c2c(nc(S(C)(=O)=O)n2C)n(CC#Cc2cccc(NCCN3CCOCC3)c2)c1=O` [Compound 14], the EC50 under setting [2] is 0.001 to 0.1 µM.
For `CNc1cc(C#CCn2c(=O)n(C)c(=O)c3c2nc(S(C)(=O)=O)n3C)ccc1N1CCOCC1` [Compound 174], the EC50 under setting [3] is 1 to 1000 µM.
`Cn1c(=O)c2c(nc(S(=O)(=O)CC3CC3)n2C)n(CC#Cc2ccnc(NCC3CC3)c2)c1=O` [Compound 34]: the EC50 under setting [2] fell in the range of 0.001 to 0.1 µM.
`Cn1c(=O)c2c(nc(S(=O)(=O)CC3CC3)n2C)n(CC#Cc2cccc(NCCN3CCOCC3)c2)c1=O` [Compound 19]: the EC50 under setting [2] was in the range of 0.001 to 0.1 µM.
Same read-out and setting: the same measure for `Cn1c(=O)c2c(nc(S(=O)(=O)CC3CC3)n2C)n(CC#Cc2cc(NC(=O)C3CC3)cc(NC(=O)C3CC3)c2)c1=O` [Compound 30]: 0.001 to 0.1 µM.
For `Cn1c(=O)c2c(nc(S(=O)(=O)Cc3c(Cl)cccc3Cl)n2C)n(C)c1=O` [Compound 57, 8-(2,6-dichlorobenzylsulfonyl)-1,3,7-trimethyl-1H-purine-2,6(3H,7H)-dione], the EC50 under setting [1] lay within 1 to 1000 µM.
Still for that read-out and setting: the value for `Cn1c(=O)c2c(nc(S(=O)(=O)Cc3ccccc3F)n2C)n(C)c1=O` [Compound 26, 8-(2-fluorobenzylsulfonyl)-1,3,7-trimethyl-1H-purine-2,6(3H,7H)-dione] was 1 to 1000 µM; that for `COc1c(Cl)cccc1CS(=O)(=O)c1nc2c(c(=O)n(C)c(=O)n2C)n1C` [Compound 63, 8-(3-chloro-2-methoxybenzylsulfonyl)-1,3,7-trimethyl-1H-purine-2,6(3H,7H)-dione] was 1 to 1000 µM.
For the compound `Cn1c(=O)c2c(nc(S(C)(=O)=O)n2C)n(CC#Cc2cccc3[nH]ccc23)c1=O` [Compound 169], under setting [3], the EC50 is 1 to 1000 µM.
With `Cn1c(=O)c2c(nc(S(=O)(=O)CC3CC3)n2C)n(Cc2ccccn2)c1=O` [Compound 142, 8-((cyclopropylmethyl)sulfonyl)-1,7-dimethyl-3-(pyridin-2-ylmethyl)-1H-purine-2,6(3H,7H)-dione], the EC50 under setting [1] lay within 1 to 1000 µM.
Still for that read-out and setting: the value for `Cn1c(=O)c2c(nc(S(=O)(=O)Cc3cccc(Br)c3)n2C)n(C)c1=O` [Compound 33, 8-(3-bromobenzylsulfonyl)-1,3,7-trimethyl-1H-purine-2,6(3H,7H)-dione] was 1 to 1000 µM.
In the case of `Cn1c(=O)c2c(nc(S(=O)(=O)CC3CC3)n2C)n(Cc2ccccc2Cl)c1=O` [Compound 136, 3-(2-chlorobenzyl)-8-((cyclopropylmethyl)sulfonyl)-1,7-dimethyl-1H-purine-2,6(3H,7H)-dione], the EC50 under setting [4] fell in the range of 1 to 100 µM.
The same measure, in the same setting: the value for `Cn1c(=O)c2c(nc(S(=O)(=O)CC3CC3)n2C)n(Cc2ccc(Cl)cc2)c1=O` [Compound 138, 3-(4-chlorobenzyl)-8-((cyclopropylmethyl)sulfonyl)-1,7-dimethyl-1H-purine-2,6(3H,7H)-dione] was 1 to 100 µM.
Turning to `CCNC(=O)C#CCn1c(=O)n(C)c(=O)c2c1nc(S(C)(=O)=O)n2C` [Compound 132, 4-(1,7-dimethyl-8-(methylsulfonyl)-2,6-dioxo-1H-purin-3(2H,6H,7H)-yl)-N-ethylbut-2-ynamide], under setting [1], the EC50 lay in the range of 1 to 1000 µM.
Regarding `Cn1c(=O)c2c(nc(S(=O)(=O)Cc3ccc(C(N)=O)cc3)n2C)n(C)c1=O` [Compound 47, 4-((1,3,7-trimethyl-2,6-dioxo-2,3,6,7-tetrahydro-1H-purin-8-ylsulfonyl)methyl)benzamide], the EC50 under setting [1] lay in the range of 1 to 1000 µM.
Same read-out and setting: the value for `Cn1c(=O)c2c(nc(S(=O)(=O)Cc3ccccn3)n2C)n(C)c1=O` [Compound 48, 1,3,7-trimethyl-8-(pyridin-2-ylmethylsulfonyl)-1H-purine-2,6(3H,7H)-dione] was 1 to 1000 µM.
For `Cn1c(=O)c2c(nc(S(C)(=O)=O)n2C)n(CC#Cc2cccc(NC(=O)CN3CCOCC3)c2)c1=O` [Compound 17], the EC50 under setting [2] is 0.001 to 0.1 µM.
